{"source": "the kinase profiling compilation of Christmann-Franck et al. (2016)", "test_in_all_cases": "radiometric filter-binding kinase assay, Kinase HotSpot", "conditions_in_all_cases": "compound 0.5 µM; ATP 10 µM", "key": {"AKT2 (human)": {"molecular_target": "AKT2 (human) (UniProt P31751)"}, "BLK (human)": {"molecular_target": "BLK (human) (UniProt P51451)"}, "BMX (human)": {"molecular_target": "BMX (human) (UniProt P51813)"}, "CAMK2G (human)": {"molecular_target": "CAMK2G (human) (UniProt Q13555)", "sequence (Q13555 whole entry, looked up)": "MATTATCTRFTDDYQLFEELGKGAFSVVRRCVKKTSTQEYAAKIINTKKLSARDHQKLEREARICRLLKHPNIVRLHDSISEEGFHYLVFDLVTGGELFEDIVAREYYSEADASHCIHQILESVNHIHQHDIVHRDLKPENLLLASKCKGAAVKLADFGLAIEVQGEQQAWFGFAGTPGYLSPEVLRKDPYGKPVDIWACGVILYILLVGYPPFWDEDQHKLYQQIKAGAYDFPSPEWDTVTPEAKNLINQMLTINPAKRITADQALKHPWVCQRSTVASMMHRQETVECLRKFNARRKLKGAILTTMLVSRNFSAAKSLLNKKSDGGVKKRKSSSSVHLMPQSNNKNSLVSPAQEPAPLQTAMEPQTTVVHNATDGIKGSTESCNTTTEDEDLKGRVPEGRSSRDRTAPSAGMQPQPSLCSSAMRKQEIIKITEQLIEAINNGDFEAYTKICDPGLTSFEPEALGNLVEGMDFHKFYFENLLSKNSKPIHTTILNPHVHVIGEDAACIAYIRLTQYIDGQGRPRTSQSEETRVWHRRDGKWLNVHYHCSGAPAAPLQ"}, "CDK5 CDK5R1 p35 (human)": {"molecular_target": "CDK5 CDK5R1 p35 (human) (UniProt Q00535+Q15078)"}, "CDK6 CCND1 (human)": {"molecular_target": "CDK6 CCND1 (human) (UniProt Q00534+P24385)"}, "CDK9 CCNT1 (human)": {"molecular_target": "CDK9 CCNT1 (human) (UniProt P50750+O60563)"}, "CSNK1G1 (human)": {"molecular_target": "CSNK1G1 (human) (UniProt Q9HCP0)"}, "DDR2 (human)": {"molecular_target": "DDR2 (human) (UniProt Q16832)"}, "DMPK (human)": {"molecular_target": "DMPK (human) (UniProt Q09013)"}, "EPHA7 (human)": {"molecular_target": "EPHA7 (human) (UniProt Q15375)"}, "EPHA8 (human)": {"molecular_target": "EPHA8 (human) (UniProt P29322)"}, "EPHB4 (human)": {"molecular_target": "EPHB4 (human) (UniProt P54760)"}, "FGFR2 (human)": {"molecular_target": "FGFR2 (human) (UniProt P21802)"}, "FGFR4 (human)": {"molecular_target": "FGFR4 (human) (UniProt P22455)"}, "GRK5 (human)": {"molecular_target": "GRK5 (human) (UniProt P34947)"}, "GSK3A (human)": {"molecular_target": "GSK3A (human) (UniProt P49840)"}, "HIPK1 (human)": {"molecular_target": "HIPK1 (human) (UniProt Q86Z02)"}, "HIPK3 (human)": {"molecular_target": "HIPK3 (human) (UniProt Q9H422)"}, "INSR (human)": {"molecular_target": "INSR (human) (UniProt P06213)", "sequence (P06213 whole entry, looked up)": "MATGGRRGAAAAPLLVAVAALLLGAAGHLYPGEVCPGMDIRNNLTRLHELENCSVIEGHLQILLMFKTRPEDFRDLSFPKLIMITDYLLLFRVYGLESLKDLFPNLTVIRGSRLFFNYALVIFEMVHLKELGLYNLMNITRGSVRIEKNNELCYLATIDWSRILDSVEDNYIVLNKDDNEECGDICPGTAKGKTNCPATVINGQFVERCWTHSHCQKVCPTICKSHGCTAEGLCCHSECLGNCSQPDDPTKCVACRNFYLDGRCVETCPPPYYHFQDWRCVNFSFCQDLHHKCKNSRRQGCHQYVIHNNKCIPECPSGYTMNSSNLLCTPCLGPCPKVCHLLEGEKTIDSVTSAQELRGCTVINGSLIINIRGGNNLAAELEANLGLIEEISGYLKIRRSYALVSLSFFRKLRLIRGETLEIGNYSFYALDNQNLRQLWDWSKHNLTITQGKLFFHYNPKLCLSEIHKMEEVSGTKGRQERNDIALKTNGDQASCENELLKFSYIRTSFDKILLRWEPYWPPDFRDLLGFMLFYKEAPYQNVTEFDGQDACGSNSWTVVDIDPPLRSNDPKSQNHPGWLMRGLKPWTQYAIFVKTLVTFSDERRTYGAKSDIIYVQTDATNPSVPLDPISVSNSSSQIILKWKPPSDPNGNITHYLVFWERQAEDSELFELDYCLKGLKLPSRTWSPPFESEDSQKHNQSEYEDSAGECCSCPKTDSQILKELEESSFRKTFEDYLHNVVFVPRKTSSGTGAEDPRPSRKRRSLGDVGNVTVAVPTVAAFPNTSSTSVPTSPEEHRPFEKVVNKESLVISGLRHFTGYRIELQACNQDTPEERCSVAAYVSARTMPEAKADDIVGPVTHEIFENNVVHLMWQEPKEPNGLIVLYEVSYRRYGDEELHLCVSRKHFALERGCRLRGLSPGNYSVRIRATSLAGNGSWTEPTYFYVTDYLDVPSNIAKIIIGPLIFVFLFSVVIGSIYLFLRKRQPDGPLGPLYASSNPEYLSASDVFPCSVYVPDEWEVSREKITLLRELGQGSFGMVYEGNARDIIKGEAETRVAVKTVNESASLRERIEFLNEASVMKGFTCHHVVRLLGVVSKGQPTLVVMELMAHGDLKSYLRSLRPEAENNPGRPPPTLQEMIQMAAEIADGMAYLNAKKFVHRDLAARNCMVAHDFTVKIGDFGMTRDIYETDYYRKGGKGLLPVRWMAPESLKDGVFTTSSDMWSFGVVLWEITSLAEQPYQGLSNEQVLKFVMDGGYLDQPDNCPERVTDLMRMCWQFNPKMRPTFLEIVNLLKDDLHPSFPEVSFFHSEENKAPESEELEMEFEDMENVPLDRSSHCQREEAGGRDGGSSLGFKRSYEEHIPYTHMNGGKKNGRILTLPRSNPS"}, "IRAK1 (human)": {"molecular_target": "IRAK1 (human) (UniProt P51617)"}, "MAPK13 (human)": {"molecular_target": "MAPK13 (human) (UniProt O15264)"}, "MAPK14 (human)": {"molecular_target": "MAPK14 (human) (UniProt Q16539)"}, "MATK (human)": {"molecular_target": "MATK (human) (UniProt P42679)"}, "MELK (human)": {"molecular_target": "MELK (human) (UniProt Q14680)", "sequence (Q14680 whole entry, looked up)": "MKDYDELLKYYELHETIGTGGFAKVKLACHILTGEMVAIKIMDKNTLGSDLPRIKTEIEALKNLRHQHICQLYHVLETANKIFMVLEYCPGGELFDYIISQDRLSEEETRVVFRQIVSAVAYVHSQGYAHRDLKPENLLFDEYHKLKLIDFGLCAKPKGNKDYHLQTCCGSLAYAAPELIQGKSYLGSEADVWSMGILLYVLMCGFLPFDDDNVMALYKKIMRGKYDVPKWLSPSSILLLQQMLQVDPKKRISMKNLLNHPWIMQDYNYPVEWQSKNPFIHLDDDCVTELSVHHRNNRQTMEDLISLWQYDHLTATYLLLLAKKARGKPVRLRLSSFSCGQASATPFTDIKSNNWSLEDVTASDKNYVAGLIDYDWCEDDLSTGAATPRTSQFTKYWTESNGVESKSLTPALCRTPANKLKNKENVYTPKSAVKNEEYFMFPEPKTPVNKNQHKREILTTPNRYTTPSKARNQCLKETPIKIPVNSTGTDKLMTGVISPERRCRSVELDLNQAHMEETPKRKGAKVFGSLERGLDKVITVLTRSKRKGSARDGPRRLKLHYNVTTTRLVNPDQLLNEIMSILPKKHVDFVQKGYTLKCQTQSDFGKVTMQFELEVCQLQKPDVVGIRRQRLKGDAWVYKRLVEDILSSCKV"}, "MYLK (human)": {"molecular_target": "MYLK (human) (UniProt Q15746)"}, "NLK (human)": {"molecular_target": "NLK (human) (UniProt Q9UBE8)"}, "PAK2 (human)": {"molecular_target": "PAK2 (human) (UniProt Q13177)"}, "PAK7 (human)": {"molecular_target": "PAK7 (human) (UniProt Q9P286)"}, "PLK2 (human)": {"molecular_target": "PLK2 (human) (UniProt Q9NYY3)"}, "PLK3 (human)": {"molecular_target": "PLK3 (human) (UniProt Q9H4B4)"}, "PRKACA (human)": {"molecular_target": "PRKACA (human) (UniProt P17612)"}, "PRKCG (human)": {"molecular_target": "PRKCG (human) (UniProt P05129)"}, "PRKG1 (human)": {"molecular_target": "PRKG1 (human) (UniProt Q13976)", "sequence (Q13976 whole entry, looked up)": "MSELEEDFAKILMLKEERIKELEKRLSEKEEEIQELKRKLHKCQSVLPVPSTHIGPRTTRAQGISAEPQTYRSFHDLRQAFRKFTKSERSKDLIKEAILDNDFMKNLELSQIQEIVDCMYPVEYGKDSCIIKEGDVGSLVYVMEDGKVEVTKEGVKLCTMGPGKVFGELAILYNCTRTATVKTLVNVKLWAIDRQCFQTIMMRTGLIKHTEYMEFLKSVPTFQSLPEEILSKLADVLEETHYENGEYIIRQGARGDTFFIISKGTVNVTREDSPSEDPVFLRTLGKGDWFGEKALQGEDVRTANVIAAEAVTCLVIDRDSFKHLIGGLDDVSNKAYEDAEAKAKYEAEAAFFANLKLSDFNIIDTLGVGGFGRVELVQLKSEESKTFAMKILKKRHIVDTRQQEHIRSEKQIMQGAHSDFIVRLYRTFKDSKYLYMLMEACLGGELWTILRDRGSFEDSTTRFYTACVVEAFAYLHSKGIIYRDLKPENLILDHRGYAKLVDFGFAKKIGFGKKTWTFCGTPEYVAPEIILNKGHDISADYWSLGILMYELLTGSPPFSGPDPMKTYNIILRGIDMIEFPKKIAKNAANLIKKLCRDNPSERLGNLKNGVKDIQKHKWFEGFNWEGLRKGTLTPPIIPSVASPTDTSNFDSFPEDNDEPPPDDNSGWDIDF"}, "SGK2 (human)": {"molecular_target": "SGK2 (human) (UniProt Q9HBY8)"}, "SLK (human)": {"molecular_target": "SLK (human) (UniProt Q9H2G2)"}, "SRC (human)": {"molecular_target": "SRC (human) (UniProt P12931)"}, "SRPK3 (human)": {"molecular_target": "SRPK3 (human) (UniProt Q9UPE1)", "sequence (Q9UPE1 whole entry, looked up)": "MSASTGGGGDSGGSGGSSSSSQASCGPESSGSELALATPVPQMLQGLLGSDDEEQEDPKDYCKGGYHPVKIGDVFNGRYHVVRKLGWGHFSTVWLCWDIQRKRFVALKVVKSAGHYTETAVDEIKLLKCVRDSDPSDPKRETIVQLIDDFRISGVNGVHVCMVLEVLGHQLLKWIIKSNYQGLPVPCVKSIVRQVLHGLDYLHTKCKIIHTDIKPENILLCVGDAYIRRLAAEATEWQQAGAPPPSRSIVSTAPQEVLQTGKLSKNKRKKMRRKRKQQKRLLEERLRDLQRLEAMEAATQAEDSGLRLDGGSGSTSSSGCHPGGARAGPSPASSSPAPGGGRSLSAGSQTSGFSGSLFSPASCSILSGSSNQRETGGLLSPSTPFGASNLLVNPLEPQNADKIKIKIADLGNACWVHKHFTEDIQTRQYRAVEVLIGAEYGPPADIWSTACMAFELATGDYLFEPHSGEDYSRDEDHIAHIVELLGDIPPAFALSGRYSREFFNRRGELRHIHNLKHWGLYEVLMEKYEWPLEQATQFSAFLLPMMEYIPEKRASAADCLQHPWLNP"}, "STK25 (human)": {"molecular_target": "STK25 (human) (UniProt O00506)", "sequence (O00506 whole entry, looked up)": "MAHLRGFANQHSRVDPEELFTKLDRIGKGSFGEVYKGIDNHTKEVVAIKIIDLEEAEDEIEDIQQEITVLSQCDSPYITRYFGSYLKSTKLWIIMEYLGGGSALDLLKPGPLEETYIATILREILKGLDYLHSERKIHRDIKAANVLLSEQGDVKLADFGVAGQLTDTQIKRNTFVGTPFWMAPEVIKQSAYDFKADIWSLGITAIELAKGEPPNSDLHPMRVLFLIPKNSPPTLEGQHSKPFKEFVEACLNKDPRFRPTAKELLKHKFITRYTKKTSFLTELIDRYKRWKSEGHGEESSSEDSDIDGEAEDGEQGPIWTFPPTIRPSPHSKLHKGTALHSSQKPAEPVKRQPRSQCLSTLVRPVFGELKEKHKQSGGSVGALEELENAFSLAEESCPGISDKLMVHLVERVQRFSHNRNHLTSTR"}, "STK33 (human)": {"molecular_target": "STK33 (human) (UniProt Q9BYT3)"}, "TEC (human)": {"molecular_target": "TEC (human) (UniProt P42680)"}, "TTK (human)": {"molecular_target": "TTK (human) (UniProt P33981)"}}, "note": "Several values for one entry are separate records, joined by “and”; a condition that tells them apart may be missing. Equal entries are not always repeated."}
{"smiles": "Oc1ccc(Nc2nc(-c3ccc(Cl)cc3)cs2)cc1", "values": [{"measurement": "residual activity", "setting": "AKT2 (human)", "value": 96.4, "unit": "%"}, {"measurement": "residual activity", "setting": "BLK (human)", "value": 100, "unit": "%"}, {"measurement": "residual activity", "setting": "BMX (human)", "value": 103, "unit": "%"}, {"measurement": "residual activity", "setting": "CAMK2G (human)", "value": 90.6, "unit": "%"}, {"measurement": "residual activity", "setting": "CDK5 CDK5R1 p35 (human)", "value": 104, "unit": "%"}, {"measurement": "residual activity", "setting": "CDK6 CCND1 (human)", "value": 101, "unit": "%"}, {"measurement": "residual activity", "setting": "CDK9 CCNT1 (human)", "value": 87.8, "unit": "%"}, {"measurement": "residual activity", "setting": "CSNK1G1 (human)", "value": 94.5, "unit": "%"}, {"measurement": "residual activity", "setting": "DDR2 (human)", "value": 94.1, "unit": "%"}, {"measurement": "residual activity", "setting": "DMPK (human)", "value": 102, "unit": "%"}, {"measurement": "residual activity", "setting": "EPHA7 (human)", "value": 97.7, "unit": "%"}, {"measurement": "residual activity", "setting": "EPHA8 (human)", "value": 93.4, "unit": "%"}, {"measurement": "residual activity", "setting": "EPHB4 (human)", "value": 89.6, "unit": "%"}, {"measurement": "residual activity", "setting": "FGFR2 (human)", "value": 104, "unit": "%"}, {"measurement": "residual activity", "setting": "FGFR4 (human)", "value": 71.6, "unit": "%"}, {"measurement": "residual activity", "setting": "GRK5 (human)", "value": 92, "unit": "%"}, {"measurement": "residual activity", "setting": "GSK3A (human)", "value": 97.4, "unit": "%"}, {"measurement": "residual activity", "setting": "HIPK1 (human)", "value": 100, "unit": "%"}, {"measurement": "residual activity", "setting": "HIPK3 (human)", "value": 109, "unit": "%"}, {"measurement": "residual activity", "setting": "INSR (human)", "value": 88.9, "unit": "%"}, {"measurement": "residual activity", "setting": "IRAK1 (human)", "value": 123, "unit": "%"}, {"measurement": "residual activity", "setting": "MAPK13 (human)", "value": 107, "unit": "%"}, {"measurement": "residual activity", "setting": "MAPK14 (human)", "value": 98.6, "unit": "%"}, {"measurement": "residual activity", "setting": "MATK (human)", "value": 95.6, "unit": "%"}, {"measurement": "residual activity", "setting": "MELK (human)", "value": 100, "unit": "%"}, {"measurement": "residual activity", "setting": "MYLK (human)", "value": 104, "unit": "%"}, {"measurement": "residual activity", "setting": "NLK (human)", "value": 101, "unit": "%"}, {"measurement": "residual activity", "setting": "PAK2 (human)", "value": 87, "unit": "%"}, {"measurement": "residual activity", "setting": "PAK7 (human)", "value": 105, "unit": "%"}, {"measurement": "residual activity", "setting": "PLK2 (human)", "value": 105, "unit": "%"}, {"measurement": "residual activity", "setting": "PLK3 (human)", "value": 97.4, "unit": "%"}, {"measurement": "residual activity", "setting": "PRKACA (human)", "value": 105, "unit": "%"}, {"measurement": "residual activity", "setting": "PRKCG (human)", "value": 87.3, "unit": "%"}, {"measurement": "residual activity", "setting": "PRKG1 (human)", "value": "94.1% and 98.5%"}, {"measurement": "residual activity", "setting": "SGK2 (human)", "value": 108, "unit": "%"}, {"measurement": "residual activity", "setting": "SLK (human)", "value": 110, "unit": "%"}, {"measurement": "residual activity", "setting": "SRC (human)", "value": 95.1, "unit": "%"}, {"measurement": "residual activity", "setting": "SRPK3 (human)", "value": 98.1, "unit": "%"}, {"measurement": "residual activity", "setting": "STK25 (human)", "value": 113, "unit": "%"}, {"measurement": "residual activity", "setting": "STK33 (human)", "value": 97.5, "unit": "%"}, {"measurement": "residual activity", "setting": "TEC (human)", "value": 120, "unit": "%"}, {"measurement": "residual activity", "setting": "TTK (human)", "value": 87.6, "unit": "%"}]}
